Patent publication US12545688B2, “Camptothecin derivative and conjugate thereof” (SICHUAN BAILI PHARMACEUTICAL CO., LTD, priority 2019, dated 2026)
Read-outs that look alike come from different tables or passages of the source.

Key:
Experiment in all cases: In vitro activity test, inhibition of target cell proliferation (MTS)
Assay type in all cases: cell-based
[1] = tested on: A431; conditions: Homo sapiens, A-431, 96 h, read-out: IC50 for the inhibition of target cell proliferation in vitro, A431
Method: (§1) • Cells: A431, SW620, BXPC3, Fadu from the Cell Bank of the Chinese Academy of • Sciences Cell • Culture medium DMEM: Gibco • FBS: BIOWEST
(§2) • Growth medium (with 10% FBS, Penicillin/streptomycin (100 U/mL) • Detection medium (with 1% FBS, Penicillin/streptomycin (100 U/mL)
(§3) Turn on the UV light of the biological safety cabinet 30 minutes in advance, and then turn on the ventilation for 3 minutes. The growth medium, detection medium, D-PBS and trypsin were preheated in a constant temperature water bath at 37° C., and then the surfaces were disinfected with alcohol and placed in a biological safety cabinet. Place the cells with a confluence of about 80% in a biological safety cabinet, aspirate the old medium, rinse with D-PBS, aspirate and discard, digest with trypsin for 2-3 min, add growth medium to neutralize, and centrifuge. 1200 rpm, 3 min. Aspirate the centrifugation supernatant, mix with 4 mL of detection medium, and count 100 uL (50 uL of cell fluid is taken out, 50 μL of Trypan Blue Stain is added and mixed, and counted after mixing). According to the pre-optimized cell plating density, 80 ul/well was plated in a 96-well plate. Only 80 uL detection medium was added to wells E11 and F11, and 150 uL of DPBS was added to the edge wells. 24 h after plating, add diluted antibody, 20 uL per well and set control, only add 20 uL detection medium in column 11, set 2 duplicate wells for each concentration, and mix on a cell vortex shaker after adding, 550 rpm, 3 min.
(§4) Dilution of the antibody solution: use the detection medium to prepare the test solution with an initial concentration of 5 uM and 300 uL in the first column of the V-shaped 96-well plate, and then add 240 uL of detection medium to the second to 10th columns respectively, take 60 uL from the first column of mixing and add it to the second column, mix up and down with a row gun for 10 times, discard the pipette tip, and operate the following 7 concentrations in sequence.
(§5) After 4 days, take out the MTS reagent, thaw at room temperature in the dark, vortex and mix well, add 20 μL of CellTiter One Solution Reagen MTS reagent per 100 μL of cell culture volume along the side wall of the well in the biological safety cabinet, and tap gently. After the MTS solution was evenly mixed, it was placed in a cell incubator for 2 h in the dark. After the reaction, the 96-well plate was taken out, the absorbance at OD490 nm was detected in a microplate reader, and the data was recorded, organized, analyzed and stored.

[2] = tested on: Bxpc-3; conditions: Homo sapiens, read-out: IC50 for the inhibition of target cell proliferation in vitro, Bxpc-3
Method: as §1, §2, §3, §4, §5

[3] = tested on: SW620; conditions: Homo sapiens, SW-620, 96 h, read-out: IC50 for the inhibition of target cell proliferation in vitro, SW620
Method: as §1, §2, §3, §4, §5

[4] = tested on: Fadu; conditions: Homo sapiens, 96 h, read-out: IC50 for the inhibition of target cell proliferation in vitro, Fadu
Method: as §1, §2, §3, §4, §5

[5] = 96 h, Bxpc-3 cells, MTS after 4 days

SMILES | IC50 ([1]; A431 cells, MTS after 4 days) [nM] | IC50 [2, 5] [nM] | IC50 ([3]; SW620 cells, MTS after 4 days) [nM] | IC50 ([4]; Fadu cells, MTS after 4 days) [nM] | IC50 [1] [nM] | IC50 ([2]; BXPC-3, 96 h) [nM] | IC50 [3] [nM] | IC50 ([4]; FaDu) [nM]
CC[C@@]1(O)C(=O)OCc2c1cc1n(c2=O)Cc2c-1nc1cc(F)c(C)c3c1c2[C@@H](N(C)C(=O)CO)CC3 [Compound 6] | 3.63 | 13.1 | 17.7 | 1.64 | – | – | – | –
CCCN(C(=O)CO)[C@H]1CCc2c(C)c(F)cc3nc4c(c1c23)Cn1c-4cc2c(c1=O)COC(=O)[C@]2(O)CC [Compound 12] | – | – | – | – | 1.1 | 1.6 to 8 | 200 to 1000 | 0.13
CC[C@@]1(O)C(=O)OCc2c1cc1n(c2=O)Cc2c-1nc1cc(F)c(C)c3c1c2[C@@H](N(C)C(=O)C1(O)CC1)CC3 [Compound 14] | – | – | – | – | 93.3 | 153 | 200 to 1000 | 53
CC[C@@]1(O)C(=O)OCc2c1cc1n(c2=O)Cc2c-1nc1cc(F)c(C)c3c1c2[C@@H](N(C)C(=O)[C@H](C)O)CC3 [Compound 16] | 0.03 | 0.00256 to 0.0128 | 0.064 to 0.32 | 0.0014 | – | – | – | –
